Measured values: patent publication US20090209587A1, “REPAGLINIDE FORMULATIONS” (priority 2008, published 2009)

Experiments:
[1] = Bulk/tapped density (USP Test 616), compressibility index and particle size distribution of repaglinide; format: physicochemical
Source text: The percentages of particles with different sizes that exist in a total powder is the particle size distribution. It is represented in certain ways. Particle size is the maximum dimension of a particle, frequently expressed in μm. Particle size distributions can be expressed in terms of, D10, D50, D90 and D[4,3]. The D10, D50 and D90 represent the 10th, median or the 50th percentile, and the 90th percentile of the particle size distribution, respectively, as measured by volume. That is, the D10, D50, D90 are values of the distribution such that 10%, 50%, or 90% of the particles have a volume of this value or less, or is the percentage of particles smaller than that size. D50 is also known as median diameter of particle. It is one of the important parameters representing characteristics of particles of powders. For a sample, if D50=5 μm, it means that 50% of the particles are smaller than 5 μm. Similarly if D10=5 μm, 10% of the particles are less than or equal to 5 μm, and if D90=5 μm, 90% of the particles have sizes less than or equal to 5 μm. D[4,3] represents the volume moment mean of the particles, or the volume weighted particle size. Densities were determined according to USP Test 616 “Bulk Density and Tapped Density,” and compressibility index is percentage change in volume induced by tapping a sample of fixed mass.

[2] = cited from earlier work

Particle size distribution D10 [1]: 2 μm
Particle size distribution D50 [1]: <4 μm
Particle size distribution D90 [1]: <7 μm
Bulk density ([1]; USP Test 616): 0.176 g/mL
Tapped density ([1]; USP Test 616): 0.247 g/mL
Compressibility index ([1]; percentage change in volume induced by tapping): 29.95
Structure (SMILES): CCOc1cc(CC(=O)N[C@@H](CC(C)C)c2ccccc2N2CCCCC2)ccc1C(=O)O [Repaglinide, S-(+)-2-Ethoxy-4-(2((3-methyl-1-(2-(1-piperidinyl)phenyl)butyl)amino)2-oxoethyl) benzoic acid]
solubility in methanol ([2]; methanol): freely soluble
solubility in methylene chloride ([2]; methylene chloride): freely soluble
solubility in water ([2]; water): practically insoluble
